Reference: patent US10206937B2, “Boronic acid derivatives and therapeutic uses thereof” (Qpex Biopharma, Inc., priority 2014, dated 2019)

System: strains of Enterobacteriaceae producing various carbapenemases (class A, D and B; 104 strains)
Assay: Antibiotics potentiation by Compound 27 (MIC; meropenem, doripenem, ertapenem, cefepime)
Type: cell-based
Details: + 27 = with Compound 27 at fixed 4 μg/ml

C[C@@H](O)[C@H]1C(=O)N2C(C(=O)O)=C(S[C@@H]3CN[C@H](C(=O)Nc4cccc(C(=O)O)c4)C3)[C@H](C)[C@H]12 [E]
MIC (strain CF1012 Citrobacter freundii (KPC-2)): Z (MIC of greater than 10 μg/mL) | MIC (strain CF1021 Citrobacter freundii (CMY-type; VIM-1)): Y (MIC of 1 μg/mL to 10 μg/mL) | MIC (strain CF1022 Citrobacter freundii (SHV-12(2be), TEM-OSBL(2b); IMP-8)): Y (MIC of 1 μg/mL to 10 μg/mL) | MIC (strain CF1023 Citrobacter freundii (SHV-12(2be), TEM-OSBL(2b); CTX-M-3; CMY-34; NDM-1)): Z (MIC of greater than 10 μg/mL) | MIC (strain CL1080 Enterobacter cloacae (IMP-1)): Y (MIC of 1 μg/mL to 10 μg/mL) | MIC (strain EA1019 Enterobacter aerogenes (SHV-5, VIM-1)): Z (MIC of greater than 10 μg/mL) | MIC (strain EC1007 Escherichia coli (KPC-3)): X (MIC of less than 1 μg/mL) | MIC (strain EC1061 Escherichia coli (NDM-1, CMY-6)): Z (MIC of greater than 10 μg/mL) | MIC (strain EC1062 Escherichia coli (OXA-48, CTX-M-15)): Y (MIC of 1 μg/mL to 10 μg/mL) | MIC (strain EC1064 Escherichia coli (NDM-1, CMY-6, CTX-M-15)): Z (MIC of greater than 10 μg/mL) | MIC (strain EC1065 Escherichia coli (IMP-1)): Y (MIC of 1 μg/mL to 10 μg/mL) | MIC (strain EC1068 Escherichia coli (VIM-1)): Z (MIC of greater than 10 μg/mL) | MIC (strain EC1069 Escherichia coli (CTX-M-27; NDM-1)): Z (MIC of greater than 10 μg/mL) | MIC (strain EC1070 Escherichia coli (TEM-OSBL(2b); CMY-42; NDM-5)): Z (MIC of greater than 10 μg/mL) | MIC (strain EC1072 Escherichia coli (CTX-M-3; NDM-1)): Z (MIC of greater than 10 μg/mL) | MIC (strain ECL1004 Enterobacter cloacae (NMC-A)): Z (MIC of greater than 10 μg/mL) | MIC (strain ECL1026 Enterobacter cloacae (KPC-2, TEM-1)): Z (MIC of greater than 10 μg/mL) | MIC (strain ECL1036 Enterobacter cloacae (KPC-3, TEM-1)): Y (MIC of 1 μg/mL to 10 μg/mL) | MIC (strain ECL1045 Enterobacter cloacae (VIM-1)): Z (MIC of greater than 10 μg/mL) | MIC (strain ECL1055 Enterobacter cloacae (KPC-3, TEM)): Z (MIC of greater than 10 μg/mL) | MIC (strain ECL1057 Enterobacter cloacae (NDM-1, TEM-1, CTX-M-15)): Z (MIC of greater than 10 μg/mL) | MIC (strain ECL1058 Enterobacter cloacae (KPC-3, SHV-11, TEM-1)): Z (MIC of greater than 10 μg/mL) | MIC (strain ECL1059 Enterobacter cloacae (KPC-3, SHV-12, TEM-1)): Y (MIC of 1 μg/mL to 10 μg/mL) | MIC (strain ECL1061 Enterobacter cloacae (KPC-3, Hyper AmpC expression)): Z (MIC of greater than 10 μg/mL) | MIC (strain ECL1082 Enterobacter cloacae (VIM-1)): Y (MIC of 1 μg/mL to 10 μg/mL) | MIC (strain ECL1084 Enterobacter cloacae (CTX-M-15; ACT-16; NDM-1)): Z (MIC of greater than 10 μg/mL) | MIC (strain ECL1085 Enterobacter cloacae (SHV-31(2be), TEM-1(2b); CTX-M-15; NDM-1)): Z (MIC of greater than 10 μg/mL) | MIC (strain ECL1086 Enterobacter cloacae (VIM-31, OXA-48(c))): Z (MIC of greater than 10 μg/mL) | MIC (strain ECL1087 Enterobacter cloacae (VIM-1)): Z (MIC of greater than 10 μg/mL) | MIC (strain ECL1088 Enterobacter cloacae (TEM-1(2b); CTX-M-14; ACT-type; VIM-1)): Z (MIC of greater than 10 μg/mL) | MIC (strain ECL1089 Enterobacter cloacae (ACT-type; IMP-1)): Z (MIC of greater than 10 μg/mL) | MIC (strain ECL1090 Enterobacter cloacae (TEM-1(2b); CTX-M-22; ACT-type; IMP-8)): Y (MIC of 1 μg/mL to 10 μg/mL) | MIC (strain ECL1091 Enterobacter cloacae (VIM-1)): Y (MIC of 1 μg/mL to 10 μg/mL) | MIC (strain ECL1092 Enterobacter cloacae (TEM-OSBL(2b); ACT-32; VIM-1)): Y (MIC of 1 μg/mL to 10 μg/mL) | MIC (strain ECL1093 Enterobacter cloacae (TEM-OSBL(2b); ACT-32; VIM-1)): Y (MIC of 1 μg/mL to 10 μg/mL) | MIC (strain ECL1094 Enterobacter cloacae (VIM-1)): Z (MIC of greater than 10 μg/mL) | MIC (strain ECL1096 Enterobacter cloacae (CMY-4, VIM-4, OXA-48(c))): Z (MIC of greater than 10 μg/mL) | MIC (strain ECL1097 Enterobacter cloacae (SHV-31(2be), TEM-OSBL(2b); CTX-M-15; ACT-31; NDM-1)): Z (MIC of greater than 10 μg/mL) | MIC (strain ECL1098 Enterobacter cloacae (TEM-OSBL(2b); DHA-1; ACT-16; NDM-1)): Z (MIC of greater than 10 μg/mL) | MIC (strain KP1001 Klebsiella pneumoniae (KPC TEM SHV)): Z (MIC of greater than 10 μg/mL) | MIC (strain KP1002 Klebsiella pneumoniae (KPC TEM SHV)): Y (MIC of 1 μg/mL to 10 μg/mL) | MIC (strain KP1003 Klebsiella pneumoniae (KPC TEM SHV)): Z (MIC of greater than 10 μg/mL) | MIC (strain KP1004 Klebsiella pneumoniae (KPC-2, TEM-1, SHV-11)): Z (MIC of greater than 10 μg/mL) | MIC (strain KP1008 Klebsiella pneumoniae (KPC-2)): Y (MIC of 1 μg/mL to 10 μg/mL) | MIC (strain KP1014 Klebsiella pneumoniae (VIM-1, TEM, SHV)): Y (MIC of 1 μg/mL to 10 μg/mL) | MIC (strain KP1054 Klebsiella pneumoniae (VIM-1, SHV-11)): Y (MIC of 1 μg/mL to 10 μg/mL) | MIC (strain KP1059 Klebsiella pneumoniae (VIM-1, SHV-11)): Z (MIC of greater than 10 μg/mL) | MIC (strain KP1061 Klebsiella pneumoniae (KPC-3, SHV-11, TEM-1)): Z (MIC of greater than 10 μg/mL) | MIC (strain KP1064 Klebsiella pneumoniae (KPC-2, SHV-11, TEM-1)): Z (MIC of greater than 10 μg/mL) | MIC (strain KP1065 Klebsiella pneumoniae (VIM-1, SHV-11)): Y (MIC of 1 μg/mL to 10 μg/mL) | MIC (strain KP1070 Klebsiella pneumoniae (KPC-2, SHV-11, TEM-1)): Z (MIC of greater than 10 μg/mL) | MIC (strain KP1074 Klebsiella pneumoniae (KPC-3, SHV-11, TEM)): Z (MIC of greater than 10 μg/mL)
